Measurements taken from US10421761B2, “Compounds for kinase modulation, and indications therefor” (Plexxikon Inc., priority 2013, dated 2019).

Tested on: B9 cells
Conditions: Repl. 1; B9 cells

SMILES: CCCS(=O)(=O)Nc1ccc(F)c(C(=O)c2c[nH]c3ncc(-c4ccc(Cl)cc4)cc23)c1F [vemurafenib]
- probe 1426300_at response, Alcam (activated leukocyte cell adhesion molecule): 2.35
- probe 1426306_a_at response, LOC100046560 /// Maged2 (similar to melanoma antigen family D, 2 /// melanoma antigen, family D, 2): 2.18
- probe 1426708_at response, Antxr2 (anthrax toxin receptor 2): 2.19
- probe 1426806_at response, Obfc2a (oligonucleotide/oligosaccharide-binding fold containing 2A): 2.33
- probe 1426848_at response, LOC100047481 /// Sec24b (similar to SEC24 related gene family, member B (S. cerevisiae) /// Sec24 related gene family, member B (S. cerevisiae)): 0.69
- probe 1426972_at response, Sec24d (Sec24 related gene family, member D (S. cerevisiae)): 2.06
- probe 1427278_at response, Clip4 (CAP-GLY domain containing linker protein family, member 4): 1.98
- probe 1427364_a_at response, Odc1 (ornithine decarboxylase, structural 1): 2.73
- probe 1427512_a_at response, Lama3 (laminin, alpha 3): 2.61
- probe 1427527_a_at response, Pthlh (parathyroid hormone-like peptide): 2.73
- probe 1427885_at response, Pold4 (polymerase (DNA-directed), delta 4): 2.20
- probe 1428114_at response, Slc14a1 (solute carrier family 14 (urea transporter), member 1): 2.61
- probe 1428195_at response, Ahcyl2 (S-adenosylhomocysteine hydrolase-like 2): 2.42
- probe 1428228_at response, Pgm3 (phosphoglucomutase 3): 2.18
- probe 1428419_at response, 5430411K18Rik (RIKEN cDNA 5430411K18 gene): 2.16
- probe 1428851_at response, 1300014I06Rik (RIKEN cDNA 1300014I06 gene): 2.30
- probe 1429700_at response, 3110040M04Rik (RIKEN cDNA 3110040M04 gene): 3.18
- probe 1429844_at response, 2310043J07Rik (RIKEN cDNA 2310043J07 gene): 0.52
- probe 1430010_at response, Ncapd2 (non-SMC condensin I complex, subunit D2): 0.43
- probe 1430567_at response, Spink5 (serine peptidase inhibitor, Kazal type 5): 0.46
- probe 1430623_s_at response, Obfc2a (oligonucleotide/oligosaccharide-binding fold containing 2A): 2.11
- probe 1430700_a_at response, Pla2g7 (phospholipase A2, group VII (platelet-activating factor acetylhydrolase, plasma)): 2.36
- probe 1431416_a_at response, Jam2 (junction adhesion molecule 2): 2.12
- probe 1431422_a_at response, Dusp14 (dual specificity phosphatase 14): 2.14
- probe 1431611_a_at response, Cadm1 (cell adhesion molecule 1): 2.15
- probe 1431688_at response, LOC73899 (hypothetical LOC73899): 2.56
- probe 1431691_a_at response, Rab31 (RAB31, member RAS oncogene family): 1.98
- probe 1433909_at response, Syt17 (synaptotagmin XVII): 2.02
- probe 1434059_at response, B230312A22Rik (RIKEN cDNA B230312A22 gene): 2.26
- probe 1434092_at response, Atg9b (ATG9 autophagy related 9 homolog B (S. cerevisiae)): 2.04
- probe 1434109_at response, Sh3bgrl2 (SH3 domain binding glutamic acid-rich protein like 2): 2.50
- probe 1434252_at response, Tmcc3 (transmembrane and coiled coil domains 3): 1.99
- probe 1434601_at response, Amigo2 (adhesion molecule with Ig like domain 2): 2.11
- probe 1434957_at response, Cdon (cell adhesion molecule-related/down-regulated by oncogenes): 0.44
- probe 1435066_at response, Pitpnc1 (phosphatidylinositol transfer protein, cytoplasmic 1): 2.04
- probe 1435176_a_at response, Id2 (inhibitor of DNA binding 2): 0.44
- probe 1435330_at response, Pyhin1 (pyrin and HIN domain family, member 1): 2.34
- probe 1435331_at response, Pyhin1 (pyrin and HIN domain family, member 1): 3.91
- probe 1435460_at response, Prkg2 (protein kinase, cGMP-dependent, type II): 2.07
- probe 1435695_a_at response, Ggct (gamma-glutamyl cyclotransferase): 2.16
- probe 1436100_at response, Sh2d5 (SH2 domain containing 5): 2.12
- probe 1436329_at response, Egr3 (early growth response 3): 2.75
- probe 1436584_at response, Spry2 (sprouty homolog 2 (Drosophila)): 3.28
- probe 1436659_at response, Dclk1 (doublecortin-like kinase 1): 2.44
- probe 1436917_s_at response, Gpsm1 (G-protein signalling modulator 1 (AGS3-like, C. elegans)): 2.22
- probe 1436944_x_at response, Pisd /// Pisd-ps1 ///Pisd-ps3 (phosphatidylserine decarboxylase /// phosphatidylserine decarboxylase, pseudogene 1 /// phosphatidylserine decarboxylase, pseudogene 3): 0.53
- probe 1437092_at response, Clip4 (CAP-GLY domain containing linker protein family, member 4): 2.37
- probe 1437100_x_at response, Pim3 (proviral integration site 3): 2.03
- probe 1437199_at response: 4.17
- probe 1437271_at response, Clcf1 (cardiotrophin-like cytokine factor 1): 2.09
- probe 1437486_at response, Gprc5a (G protein-coupled receptor, family C, group 5, member A): 2.49
- probe 1437982_x_at response, Cox15 (COX15 homolog, cytochrome c oxidase assembly protein (yeast)): 0.51
- probe 1438038_at response, 4930402H24Rik (RIKEN cDNA 4930402H24 gene): 2.10
- probe 1438664_at response, Prkar2b (protein kinase, cAMP dependent regulatory, type II beta): 0.44
- probe 1438699_at response, Srd5a1 (steroid 5 alpha-reductase 1): 1.89
- probe 1439016_x_at response, Sprr2a (small proline-rich protein 2A): 0.40
- probe 1439109_at response, Ccdc68 (coiled-coil domain containing 68): 0.45
- probe 1439434_x_at response, Sh2d5 (SH2 domain containing 5): 2.06
- probe 1439797_at response, Ppard (peroxisome proliferator activator receptor delta): 2.09
- probe 1439878_at response, Ivl (involucrin): 3.09
- probe 1440169_x_at response, Ifnar2 (interferon (alpha and beta) receptor 2): 0.53
- probe 1440559_at response, Hmga2-ps1 (high mobility group AT-hook 2, pseudogene 1): 3.39
- probe 1441315_s_at response, Slc19a2 (solute carrier family 19 (thiamine transporter), member 2): 2.46
- probe 1441917_s_at response, Tmem40 (transmembrane protein 40): 2.00
- probe 1442350_at response: 2.22
- probe 1442363_at response, 1110012J17Rik (RIKEN cDNA 1110012J17 gene): 2.08
- probe 1443536_at response, Slc7a11 (solute carrier family 7 (cationic amino acid transporter, y+ system), member 11): 0.39
- probe 1445758_at response: 0.47
- probe 1446791_at response, Pi15 (peptidase inhibitor 15): 1.12
- probe 1447661_at response: 0.53
- probe 1447845_s_at response, Vnn1 (vanin 1): 0.46
- probe 1448364_at response, Ccng2 (cyclin G2): 2.30
- probe 1448532_at response, Prl8a9 (prolactin family8, subfamily a, member 9): 2.70
- probe 1448562_at response, Upp1 (uridine phosphorylase 1): 2.68
- probe 1448613_at response, Ecm1 (extracellular matrix protein 1): 2.00
- probe 1448617_at response, Cd53 (CD53 antigen): 2.24
- probe 1448810_at response, Gne (glucosamine): 2.16
- probe 1448855_at response, Rassf1 (Ras association (RalGDS/AF-6) domain family member 1): 1.97
- probe 1448894_at response, Akr1b8 (aldo-keto reductase family 1, member B8): 2.01
- probe 1448978_at response, Ngef (neuronal guanine nucleotide exchange factor): 3.21
- probe 1449038_at response, Hsd11b1 (hydroxysteroid 11-beta dehydrogenase 1): 2.96
- probe 1449125_at response, Tnfaip8l1 (tumor necrosis factor, alpha-induced protein 8-like 1): 2.14
- probe 1449133_at response, Sprr1a (small proline-rich protein 1A): 2.53
- probe 1449268_at response, Gfpt1 (glutamine fructose-6-phosphate transaminase 1): 2.82
- probe 1449297_at response, Casp12 (caspase 12): 0.41
- probe 1449334_at response, Timp3 (tissue inhibitor of metalloproteinase 3): 0.43
- probe 1449367_at response, Trex2 (three prime repair exonuclease 2): 4.45
- probe 1449408_at response, Jam2 (junction adhesion molecule 2): 2.04
- probe 1449545_at response, Fgf18 (fibroblast growth factor 18): 3.88
- probe 1449965_at response, Mcpt8 (mast cell protease 8): 2.83
- probe 1450241_a_at response, Evi2a (ecotropic viral integration site 2a): 4.78
- probe 1450262_at response, Clcf1 (cardiotrophin-like cytokine factor 1): 2.62
- probe 1450276_a_at response, Scin (scinderin): 2.73
- probe 1450376_at response, Mxi1 (Max interacting protein 1): 2.20
- probe 1450430_at response, Mrc1 (mannose receptor, C type 1): 2.66
- probe 1450501_at response, Itga2 (integrin alpha 2): 3.02
- probe 1450791_at response, Nppb (natriuretic peptide precursor type B): 4.55
- probe 1450976_at response, Ndrg1 (N-myc downstream regulated gene 1): 2.23
- probe 1451006_at response, Xdh (xanthine dehydrogenase): 0.40
- probe 1451308_at response, Elovl4 (elongation of very long chain fatty acids (FEN1/Elo2, SUR4/Elo3, yeast)-like 4): 2.50
- probe 1451446_at response, Antxr1 (anthrax toxin receptor 1): 0.41
- probe 1451501_a_at response, Ghr (growth hormone receptor): 2.21
- probe 1451529_at response, Sgtb (small glutamine-rich tetratricopeptide repeat (TPR)-containing, beta): 1.91
- probe 1451798_at response, Il1rn (interleukin 1 receptor antagonist): 3.05
- probe 1452058_a_at response, Rnfl1 (ring finger protein 11): 2.07
- probe 1452087_at response, Epsti1 (epithelial stromal interaction 1 (breast)): 2.20
- probe 1452203_at response, Obfc2a (oligonucleotide/oligosaccharide-binding fold containing 2A): 2.07
- probe 1452521_a_at response, Plaur (plasminogen activator, urokinase receptor): 2.33
- probe 1453055_at response, Sema6d (sema domain, transmembrane domain (TM), and cytoplasmic domain, (semaphorin) 6D): 3.32
- probe 1453278_a_at response, Clip4 (CAP-GLY domain containing linker protein family, member 4): 2.00
- probe 1453345_at response, Nipal1 (NIPA-like domain containing 1): 3.86
- probe 1454048_a_at response, 4931408A02Rik /// LOC630876 (RIKEN cDNA 4931408A02 gene /// similar to Protein C21orf63 homolog precursor): 0.40
- probe 1454254_s_at response, 1600029D21Rik (RIKEN cDNA 1600029D21 gene): 2.37
- probe 1454649_at response, Srd5a1 (steroid 5 alpha-reductase 1): 2.02
- probe 1454699_at response, LOC100047324 /// Sesn1 (similar to Sesn1 protein /// sestrin 1): 0.50
- probe 1454710_at response, Spink2 (serine peptidase inhibitor, Kazal type 2): 2.39
- probe 1454780_at response, Galntl4 (UDP-N-acetyl-alpha-D-galactosamine:polypeptide N-acetylgalactosaminyltransferase-like 4): 0.42
- probe 1454877_at response, Sertad4 (SERTA domain containing 4): 0.40
